According to ChEMBL document CHEMBL3232863, “Small molecule disruptors of the glucokinase-glucokinase regulatory protein interaction: 3. Structure-activity relationships within the aryl carbinol region of the N-arylsulfonamido-N'-arylpiperazine series” (J Med Chem, 2014):

What was measured:
[1] = AUC in C57BL/6 mouse at 10 mg/kg, po; assay type: ADME, organism-based; set-up: dose 10 mg/kg, route oral; conditions: plasma
[2] = Cmax in C57BL/6 mouse at 10 mg/kg, po; assay type: ADME, organism-based; set-up: dose 10 mg/kg, route oral; conditions: in vivo
[3] = (§1) AUC in Sprague-Dawley rat at 10 mg/kg, po; assay type: ADME, organism-based, Plasma; set-up: dose 10 mg/kg, route oral; conditions: Sprague-Dawley, plasma
[4] = Tmax in C57BL/6 mouse at 10 mg/kg, po; assay type: ADME, organism-based; set-up: dose 10 mg/kg, route oral; conditions: in vivo
[5] = (§2) Oral bioavailability in Sprague-Dawley rat at 10 mg/kg; assay type: ADME, organism-based; conditions: Sprague-Dawley, in vivo
Rattus norvegicus [6] = assay: as §2; assay type: ADME, organism-based; conditions: in vivo
Rattus norvegicus [7] = assay: as §1; assay type: ADME, organism-based, Plasma; set-up: dose 10 mg/kg, route oral; conditions: in vivo
[8] = Oral bioavailability in C57BL/6 mouse at 10 mg/kg; assay type: ADME, organism-based; conditions: in vivo

Row | AUC [1] | Cmax [2] | AUC [3] | Tmax [4] | bioavailability [5] | F (Rattus norvegicus [6]) | AUC (Rattus norvegicus [7]) | bioavailability [8] | SMILES
1 | 64.8 µM·h | 5.82 µM | 20 µM·h | 5 h |  |  |  |  | CC#C[C@H]1CN(S(=O)(=O)c2ccc(N)nc2)CCN1c1ccc(C(O)(C(F)(F)F)C(F)(F)F)cc1
2 |  |  | 7.1 µM·h |  | 48% |  |  |  | CC#C[C@H]1CN(S(=O)(=O)c2ccc(N)nc2)CCN1c1ccc([C@](O)(CO)C(F)(F)F)cc1
3 |  |  | 0.26 µM·h |  | 5% |  |  |  | CC#C[C@H]1CN(S(=O)(=O)c2ccc(N)nc2)CCN1c1ccc(S(N)(=O)=O)cc1
4 |  |  |  |  |  | 1.5% | 0.03 µM·h |  | CC#C[C@H]1CN(S(=O)(=O)c2ccc(N)nc2)CCN1c1ccc(S(=O)(=O)NC)cc1
5 | 362 µM·h | 46.6 µM | 25.3 µM·h | 1 h | 51% |  |  | 53% | CC#C[C@H]1CN(S(=O)(=O)c2ccc(N)nc2)CCN1c1ccc([S@](=N)(=O)C(F)(F)F)cc1
6 | 37 µM·h | 9.71 µM | 28.4 µM·h | 0.25 h | 47% |  |  | 47% | CC#C[C@H]1CN(S(=O)(=O)c2ccc(N)nc2)CCN1c1ccc([C@@](C)(O)C(F)(F)F)cn1
